Ends that are not written are not given here.

For data set [1], the system named is E. coli D31 inner membrane. Kind of data set: E. coli inner membrane permeabilization (ONPG / β-galactosidase). In kind it is cell-based, Escherichia coli. Particulars: E. coli D31, ONPG hydrolysis, absorbance 420 nm, up to 90 minutes; average of three replicates. The procedure:
A single colony of E.coli D31 was inoculated into LB broth and placed in a shaking incubator and set to 225 rpm at 37 C for ~ 18 hours. A 1:250 dilution was made using the overnight culture into fresh LB broth. To induce the expression the expression of β-galactosidase, a final concentration of 100mM of IPTG was introduced. This dilution plus the IPTG was placed back into the shaking incubator for about 2 hours until an OD600 of 0.2-0.4 was achieved.
A 96 well plate was prepared with the following solutions in order: 10 μL of each peptide variant 2-fold serially diluted down the plate with the exception of the final row (used as a negative control 10 μL of 0.01% acetic acid), 56 μL Z-buffer (60mM Na2HPO4, 40mM NaH2PO4, 10mM KCl, 1mM MgSO4, 50mM β-mercaptoethanol pH 7), 19 μL of the E. coli culture, and 15 μL of 4 mg/ml ONPG that was prepared in Z-buffer added immediately before the assay began. Absorbance measurements wer taken at 420 nm every 5 minutes for a total run time of 90 minutes. […]
(§1) As the mechanism of action of the L1 venom peptide is likely a membrane disruptive mechanism, the effect of the hydrophobic substitutions on membrane permeabilization was investigated using E.coli and ovine red blood cells (RBCs). […] Similarly, the permeabilization of the E. coli inner membrane was assessed using a cytoplasmic enzyme, β-galactosidase, and a chromogenic substrate, ONPG. […]

Data set [2] can be described thus: Red edge excitation shift (REES) solution aggregation assay. In kind it is physicochemical. The conditions noted are these: 2 μM peptide in PBS pH 7.0, λex 280 to 307 nm, emission 310 to 410 nm, Trp fluorescence, average of three replicates. An excerpt: All fluorescence spectroscopy experiments were preformed using a JY-Horiba Fluoromax4 instrument. Excitation and emission slit widths were kept consistent at 2.5 nm. Semi-micro quartz cuvettes were utilized for each experiment. The following formula was used to calculate a spectral barycenter for each experiment: (1) B=∑λ*i/∑i where B is the barycenter, λ is the wavelength, and i is the intensity at the specified wavelength. An entire emission spectrum from 300-400 was used the carry out the calculation of barycenter.
Red edge excitation shift (REES) experiments utilized excitation at 6 different wavelengths (λex = 280, 290, 295, 300, 305, and 307 nm) and the same emission range of 310 to 410 nm. Samples were similarly prepared as above. A blank only containing PBS buffer was used as background to correct the spectra after each addition.
Aggregation of peptides was assessed utilizing the intrinsic fluorescence properties of the Trp residue in the L1 sequence. […] Differences in the side chain motion/dynamics of the Trp residue and the local environment around the Trp can be observed by monitoring the red-edge excitation shifts (REES). […]

The test system of data set [3] is E. coli D31 outer membrane. Description: E. coli outer membrane permeabilization (nitrocefin / β-lactamase). In kind it is cell-based, Escherichia coli. Particulars: E. coli D31, nitrocefin hydrolysis, absorbance 486 nm, up to 90 minutes; peptide serially diluted from 15 μM; average of three replicates. Here is the method: A single colony of E.coli D31 was taken from an LB agar plate and inoculated into fresh LB broth with 100 μg/mL ampicillin (LB-Amp), then place in a shaking incubator at 37 C (225 rpm) for ~ 18 hours. After the incubation period 100 μL was taken from the culture and diluted with 25 mL of fresh LB-Amp. The dilution was further incubated in the same conditions until an OD600 of 0.2 to 0.4 was obtained. Once the specified OD600 was reached the culture was then centrifuged at 2500 rpm for 15 minutes in a tabletop clinical centrifuge. The supernatant was discarded and then an equal amount of PBS (100 mM NaH2PO4, 200 mM NaCl, pH7) was used to resuspend the pellet.
Experimental samples were prepared in a 96-well plate in the order as follows: 10 μL of the six peptide variants that were serially diluted starting a concentration of 15 μM with the exception of the last row (used as a negative control 10 μL of 0.01% acetic acid). 80 μL of the resuspended bacteria culture, and 10 μL of 50 μg/mL nitrocefin in PBS. The absorbance was recorded at 486 nm in 5-minute intervals for a total run time of 90 minutes immediately following the addition of nitrocefin. The antimicrobial agent polymyxin B was used as a positive control. The values presented are the average of three replicates.
as §1, with “(RBCs). The permeabilization of the E. coli outer membrane was assayed using an enzyme-substrate pair in which the enzyme (β-lactamase) is located in the periplasmic space while the substrate (the chromogenic nitrocefin) is added to the exterior of cells.” for “(RBCs).”

Turning to FFKEFWTKMKGAGKAFFGKFKGFF [L1F], the Inner membrane permeabilization result in data set [1] is reported as “exhibited any inner membrane permeabilizing activity”. Further, the REES total shift in data set [2] is ~ 2 nm. For the same sequence, in data set [3], the Outer membrane permeabilization entry is recorded as “increased permeability of the outer membrane”.
In the case of LLKELWTKMKGAGKALLGKLKGLL [L1L], the Inner membrane permeabilization result in data set [1] was “exhibited any inner membrane permeabilizing activity”. The Outer membrane permeabilization entry in data set [3] was “increased permeability of the outer membrane”.

The values are drawn from paper PMC9114170, “Investigation of the Role of Hydrophobic Amino Acids on the Structure-Activity Relationship in the Antimicrobial Venom Peptide Ponericin L1” (The Journal of membrane biology, 2021).
